Data from patent US6784191B2, “Benzamidine derivatives” (Ajinomoto Co., Inc., priority 1999, dated 2004).

How the values were obtained:
[1] = biological target: T1, activated human blood coagulation factor X (Homo sapiens, UniProt P00742); assay: Determination of activity of inhibiting the activated blood-coagulation factor X (chromogenic substrate, initial rate); format: biochemical; conditions: negative logarithm of concentration inhibiting 50% of initial rate, tris hydrochloride buffer pH 8.4, room temperature; for IC50: read-out: Activity of inhibiting activated blood coagulation factor X (pIC50) (converted)
T1 construct: purchased Enzyme Research Co
Description: Determination of Activity of Inhibiting the Activated Blood-coagulation Factor X
130 μl of 100 mM tris hydrochloride buffer adjusted to pH 8.4 was added to 10 μl of an aqueous solution of a compound to be tested. Then 10 μl of a 0.5 unit/ml solution of activated human blood coagulation factor X (a product of Enzyme Research Co.) in tris hydrochloride buffer of pH 8.4 was added to the resultant mixture. After the incubation at room temperature for 10 minutes, 50 μl of a solution of N-benzoyl-L-isoleucine-L-glutamine-glycine-L-arginine-P-nitroanilide hydrochloride (a product of Peptide Institute Inc.) adjusted to 0.8 mM with tris hydrochloride (pH 8.4) was added thereto. The absorbance was determined and then the initial reaction rate was determined. A control was prepared in the same manner as that described above except that the solution of the compound to be tested was replaced with 10 μl of tris hydrochloride buffer adjusted to pH 8.4. The absorbance was determined with MICROPLATE READER Model 3550-UV (a product of BIO RAD) at a wave length of 405 nm at intervals of 15 seconds for 16 minutes.

human thrombin = biological target: T2, human thrombin (Homo sapiens, UniProt P00734); assay: Determination of thrombin-inhibiting activity (S-2238 chromogenic substrate, initial rate); format: biochemical; conditions: negative logarithm of concentration inhibiting 50% of initial rate, tris hydrochloride buffer pH 8.4, room temperature; for IC50: read-out: Thrombin-inhibiting activity (pIC50) (converted)
T2 construct: human thrombin (a product of SIGMA Co.); purchased SIGMA Co
Description: Determination of Thrombin-Inhibiting Activity
130 μl of 100 mM tris hydrochloride buffer adjusted to pH 8.4 was added to 10 μl of an aqueous solution of a test compound. Then 10 μl of a solution of human thrombin (a product of SIGMA Co.) adjusted to 2 units/ml with tris hydrochloride buffer of pH 8.4 was added to the resultant mixture. After the incubation at room temperature for 10 minutes, 50 μl of a solution of D-phenylalanine-L-pipecolyl-L-arginine-P-nitroanilide dihydrochloride (S-2238; a product of Daiichi Kagaku Yakuhin Co.) adjusted to 0.4 mM with tris hydrochloride buffer of pH 8.4 was added thereto. The absorbance was determined and then the initial reaction rate was determined. A control was prepared in the same manner as that described above except that the solution of the compound to be tested was replaced with 10 μl of tris hydrochloride buffer adjusted to pH 8.4. The absorbance was determined with MICROPLATE READER Model 3550-UV (a product of […]) at a wave length of 405 nm at intervals of 15 seconds for 16 minutes.

[2] = test system: blood plasma (prothrombin time); assay: Determination of blood anticoagulating activity by prothrombin time (PT) method; format: biochemical, human; conditions: blood plasma from healthy people, citrate; Sysmex PT II rabbit brain thromboplastin, 37° C.
Description: Determination of Blood Anticoagulating Activity
The blood anticoagulating activity was determined by a prothrombin time (PT) determination method. The PT was determined as follows: The blood was taken from healthy people. 3.8% aqueous trisodium citrate solution was added to the blood in a volume ratio of 1:10. The blood plasma was separated by the centrifugation. 5 μl of DMSO solution containing a test compound was added to 45 μl of the blood plasma. After the incubation at room temperature for 2 minutes, a test tube containing the blood plasma solution was placed in Sysmex CA-3000 fully automatic blood coagulation determination device (a product of Toa Medical Electronics Co., Ltd.), and incubated at 37° C. for 3 minutes. 100 μl of Sysmex PT II (rabbit brain tissue thromboplastin, 13.2 mM calcium chloride; a product of Toa Medical Electronics Co., Ltd.) was fed into the test tube. PT was automatically determined with the device. A sample containing 5 μl of DMSO in place of the solution of the test compound was used as the control. The negative logarithm (pPT2) of the concentration of the test compound which elongated PT of the control to the twice as long was determined, and employed as the index of the blood anticoagulating activity.

T1 sequence (P00742 235-488 limits assumed): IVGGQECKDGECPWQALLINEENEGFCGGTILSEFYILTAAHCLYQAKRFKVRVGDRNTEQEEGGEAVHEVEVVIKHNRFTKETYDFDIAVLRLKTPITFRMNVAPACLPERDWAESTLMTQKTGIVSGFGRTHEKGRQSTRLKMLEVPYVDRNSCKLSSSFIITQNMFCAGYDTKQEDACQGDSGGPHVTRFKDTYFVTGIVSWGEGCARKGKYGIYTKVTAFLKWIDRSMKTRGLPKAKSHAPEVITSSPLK
T1 sequence (P00742 41-179 partner limits assumed): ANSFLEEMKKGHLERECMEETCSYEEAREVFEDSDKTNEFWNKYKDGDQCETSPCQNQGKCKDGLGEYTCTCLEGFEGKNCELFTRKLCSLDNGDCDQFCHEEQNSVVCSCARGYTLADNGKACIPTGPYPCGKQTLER

SMILES	IC50 [1]	IC50 (human thrombin)	Activity of inhibiting activated blood coagulation factor X (pIC50) [1]	Thrombin-inhibiting activity (pIC50) (human thrombin)	pPT2 (negative logarithm of the concentration which elongated PT of the control to twice as long) [2]
CC(=N)N1CCC(Oc2ccc(C(=O)NCCOc3cc(C(=N)N)ccc3CCP(=O)(O)O)cc2)CC1 [Compd. of Ex. 2]	2.51 nM	> 100000 nM			
N=C(N)c1ccc(CCP(=O)(O)O)c(OC[C@H](CCC(=O)O)NC(=O)C2CCN(c3ccncc3)CC2)c1.O=C(O)C(F)(F)F.O=C(O)C(F)(F)F [Compd. of Ex. 4, (4S)-5-(5-amidino-2-(2-phosphorylethyl)phenoxy)-4-((1-(1-pyridine-4-yl)piperidine-4-carbonyl)-amino)pentanoic acid bistrifluoroacetate]			8.7	<4.0	
N/C(=N/O)c1ccc(CCP(=O)(O)O)c(OCCNC(=O)c2ccc(C(=O)N3CCCC3)cc2)c1 [Compd. of Ex. 6, [2-(4-Hydroxylamidino-2-[2-[4-(1-pyrrolidinecarbamoyl)benzoylamino]ethoxy]phenyl)ethyl]phosphoric acid monotrifluoroacetate]	79.4 nM	> 100000 nM			

Further lines, with some results ahead:

IC50 [1]	IC50 (human thrombin)	SMILES	Activity of inhibiting activated blood coagulation factor X (pIC50) [1]	Thrombin-inhibiting activity (pIC50) (human thrombin)	pPT2 (negative logarithm of the concentration which elongated PT of the control to twice as long) [2]
2.51 nM	39800 nM	N=C(N)c1ccc(CCP(=O)(O)O)c(OCCNC(=O)c2ccc(C(=O)N3CCCC3)cc2)c1 [Compd. of Ex. 3, [2-(4-Amidino-2-[2-[4-(1-pyrrolidinecarbamoyl)benzoylamino]ethoxy]phenyl)ethyl]phosphoric acid mono-trifluoroacetate]			
3.16 nM	> 316000 nM	N=C(N)c1ccc(CCP(=O)(O)O)c(OCCNC(=O)C2CCN(c3ccncc3)CC2)c1 [Compd. of Ex. 1, [2-(4-Amidino-2-[2-[(1-(1-pyridine-4-yl)piperidine-4-carbonyl)amino]ethoxy]phenyl)ethyl]phosphoric acid bistrifluoroacetate]		<3.5	6.8
